Columns and labels:
[1] = SYTOX Green cell viability assay; type: cell-based, human; conditions: human, hiPSC (DF6-9-9T) cells
Description: In Vitro Toxicity Assays: Treatment with small molecules or glucose deprivation was initiated in hESC or hiPSC at 24 and 96 h post-plating and in vitro toxicity assays were performed at specified treatment endpoints 24-96 hours after treatment initiation. […] Neutral red assays for cell viability were performed as previously described. In vitro cell death was determined using SYTOX® Green nucleic acid stain (Life Technologies). Briefly, cells were incubated in 5 μM SYTOX® Green for 30 minutes at 37° C. in a humidified cell incubator with 5% CO2. Percent cell viability was determined by normalizing to replicate cells incubated with 120 μM digitonin (Sigma-Aldrich) and 5 μM SYTOX® Green. Imaging of cell viability was performed using Live/Dead® Viability/Cytotoxicity Kit, for mammalian cells (Life Technologies). Cells were stained for 20 minutes at room temperature with 4 μM Calcein AM to detect viable cells and 2 μM Ethidium Homodimer 1 to detect cells with compromised membranes. Representative images of alterations in cell morphology were acquired on confluent hPSC 24-72 hours after treatment initiation. Imaging was performed with a Nikon Ti-U inverted microscope.

[2] = Neutral red cell viability assay in hiPSC; type: cell-based, human; conditions: human, hiPSC (DF6-9-9T) cells; 72 hours after start of treatment; both confluent and sub-confluent cells; 2.5 μM; read-out: viable cells remaining
Description: (§1) Neutral red assays for cell viability were performed as previously described. In vitro cell death was determined using SYTOX® Green nucleic acid stain (Life Technologies). Briefly, cells were incubated in 5 μM SYTOX® Green for 30 minutes at 37° C. in a humidified cell incubator with 5% CO2. […] Imaging of cell viability was performed using Live/Dead® Viability/Cytotoxicity Kit, for mammalian cells (Life Technologies). Cells were stained for 20 minutes at room temperature with 4 μM Calcein AM to detect viable cells and 2 μM Ethidium Homodimer 1 to detect cells with compromised membranes. […] Imaging was performed with a Nikon Ti-U inverted microscope.

hiPSC (DF6-9-9T) = experiment: Neutral red cell viability assay in hiPSC; type: cell-based, human; conditions: for LD50: 24 hour pulse treatment, viability 72 hours after treatment initiation
Description: as §1

H1 hESC colonies = experiment: Elimination of hESC colonies grown on human fibroblast feeders (alkaline phosphatase staining, brightfield); type: cell-based
[3] = system: day 10 cardiomyocytes derived from hiPSC (DF6-9-9T); experiment: Characterization of cardiomyocytes after STF-31 (contractility, flow cytometry, immunofluorescence, qPCR); type: cell-based, human
Description: Quantitative-real time PCR for TNNI3, Troponin T2 (TNNT2), and Homeobox protein Nkx-2.5 (NKX2-5) was performed as previously described using Taqman® Assays […] Cells were then fixed with 4% paraformaldehyde, permeabilized with 0.2% Triton-X, incubated with primary antibody for Troponin T (TNNT2) (Abcam: ab8295) overnight at 4° C. Cells were then incubated in secondary antibody goat anti-mouse IgG1-Alexa 568 (Life Tech: A-21124) and nuclei were detected with Hoechst 33342 (Life Tech: H21492). Cells were imaged with a Nikon Ti-U inverted microscope and Nikon Eclipse 90i confocal microscope.

[4] = system: DF6-9-9T hiPSC in co-culture with day 10 cardiomyocytes or human fibroblasts; experiment: Colony formation assay in co-cultures of hiPSC with differentiated cells; type: cell-based; conditions: 5 μM
Description: The first iteration was adapted from previously described method, after 24 hours of treatment, hiPSC were detached with Accutase (StemCell Technologies), re-suspended in E8, passed though 12×75 mm tube with cell strainer cap (Falcon), and plated at 5e4 live cells per 2 cm^2. Media were changed every 48 hours and cells were cultured for six days, at which time staining for alkaline phosphatase was performed with leukocyte alkaline phosphatase kit (Sigma-Aldrich) as described and plates were visually inspected for phosphatase-positive colonies. This strategy represents the most common implementation of the colony formation assay. However, concerns regarding the cell death normally encountered during passaging prompted another approach for stricter assessment. In the second iteration, cells were treated for 24 hours, washed twice with 0.5 mL D-PBS, and media refreshed with E8. Thereafter, media were replaced daily for six days at which point staining for alkaline phosphatase activity was performed. […] Elimination of hiPSC from co-cultures with differentiated cells was performed with human fibroblasts and day 10 cardiomyocytes derived from hiPSC. hiPSC (DF6-9-9T) were plated at concentrations ranging from 100-10,000 live cells per well with human fibroblasts (1.75e5 cells) or day 10 differentiated cardiomyocytes (3.75e5 cells) in E8 and Y-27632 per 9.6 cm^2. […]

sub-confluent hiPSC [5] = experiment: Immunoblot analysis of p-AMPK, AMPK, cleaved caspase-3 and -9; type: cell-based, human; conditions: 2.5 μM STF-31, 30 μM WZB117
Description: Immunoblot Analysis: Non-adherent cells were collected by centrifugation, adherent cells were washed once with d-PBS and lysed in Laemmli buffer, combined with non-adherent cell pellet, and heated at 95° C. for 5 minutes. Protein concentration was measured using the Qubit protein assay (Life Technologies). 25 μg of total protein was separated by SDS-PAGE, transferred to nitrocellulose membrane (GE Healthcare Life Sciences) and blocked according to the manufacturer's instructions. Membranes were incubated overnight at 4° C. with the following dilutions of primary antibodies: rabbit anti-cleaved caspase-3 (1:500), rabbit anti-caspase-9 (1:1000), rabbit anti-phospho-AMPK (1:1000), and rabbit anti-AMPK (1:1,000) from Cell Signaling Technology, and mouse anti-GAPDH (1:10,000) from Life Technologies. Membranes were then incubated with secondary antibodies for 45 minutes at the following concentrations: donkey anti-mouse-horseradish peroxidase (1:5,000) and donkey anti-rabbit-horseradish peroxidase (1:7,000) from Jackson Immunoresearch Laboratories, Inc., followed by detection using enhanced chemiluminescence.

sub-confluent hiPSC [6] = experiment: Cleaved caspase-3/7 fluorescence based assay; type: cell-based, human; conditions: after initiation of treatment; 2.5 μM STF-31, 30 μM WZB117
[7] = DMSO; cited from earlier work
[8] = 5 μM 24 hour pulse, 72 hours after treatment initiation

In the case of CC(C)(C)c1ccc(S(=O)(=O)NCc2ccc(C(=O)Nc3cccnc3)cc2)cc1 [STF-31, 4-[[[[4-(1,1-Dimethylethyl)phenyl]sulfonyl]amino]methyl]-N-3-pyridinyl-benzamide], the viability at 72 h, 2.5 μM [1] is reported as 10%, the viability at 72 h, 2.5 μM [2] is reported as less than 2% and the LD50 (hiPSC (DF6-9-9T); confluent hiPSC) is reported as 1.78 µM. The LD50 (hiPSC (DF6-9-9T); sub-confluent hiPSC) was 1.35 µM, the “effect of increasing concentration on time of significant toxicity” value (hiPSC (DF6-9-9T); concentrations up to 100 μM, neutral red) was “did not accelerate the time” and the “median lethal dose (LD50)” value (hiPSC (DF6-9-9T); confluent hiPSC, 48 hours after continuous treatment, neutral red) was 182 nM. The “minimal treatment time to achieve complete toxicity of hPSC” value (hiPSC (DF6-9-9T); data not shown) was 24 h, the “colonies by alkaline phosphatase staining” value (H1 hESC colonies; after 96 hours of treatment, 2.5 μM) was “Colonies were not detected” and the “time at which toxicity occurs” value (H1 hESC colonies; hESC colonies on human fibroblast feeder cells, 2.5 μM) was 48 to 72 h. The “colony growth after passaging” value (H1 hESC colonies; passaged 96 hours after treatment initiation, cultured additional 72 hours) was “No colony growth or alkaline phosphatase activity was detected”, the “expression of cardiac genes (q-PCR)” value ([3]; 5 μM 24 hour pulse, 24-72 hours after initiation) was “not significantly altered” and the “abundance of cardiac markers TNNI3 and IRX4 (flow cytometry)” value [3, 8] was “did not affect abundance”. The “structural organization of TNNT2” value [3, 8] was “maintained comparable structural organization”, the cardiomyocyte spontaneous contractility ([3]; 5 μM for 24 hours, day 10 cardiomyocytes) was “did not affect cardiomyocyte spontaneous contractility” and the “contractions, protein and mRNA levels of cardiomyocyte markers, structural features compared with controls” value ([3]; treated on day 5 and day 10 of differentiation) was “indistinguishable from controls”. For the same compound, the “elimination of hiPSC colonies from co-culture” value ([4]; 24-hour pulse, day 10 cardiomyocytes) was “elimination of a majority of hiPSC colonies”, the “elimination of hiPSC colonies from co-culture” value ([4]; 48 hour pulse, day 10 cardiomyocytes or human fibroblasts) was “completely eliminate hiPSC” and the “time at which cleaved caspase-3 and -9 are observed” value (sub-confluent hiPSC [5]) was “significantly later”. For the same compound, the “time at which p-AMPK is detected/increased” value (sub-confluent hiPSC [5]; post-treatment) was 24 h, the “time of induction of caspase-3/7 activity” value (sub-confluent hiPSC [6]) was 24 h and the solubility [7] was “soluble in DMSO”.

From patent US11959096B2, “Methods for selective inhibition of pluripotent stem cells” (THE MEDICAL COLLEGE OF WISCONSIN, INC., priority 2014, dated 2024)
